Where two headings read alike, the source gives them in different places.
Legend:
Assay type in all cases: cell-based
[1] = system: TK6 human lymphoblastoid cells; conditions: for Cell Density (±S.D.): 24 h treatment at the optimized cytotoxic concentration (Table 1), aim 40-60% viability decrease; for EC50: 24 h dilution series, determined by cell density and the Alamar Blue assay, read-out: approximated EC50 (cytotoxic concentration for 50% cell death; equicytotoxic concentration)
Description: (§1) The human lymphoblastoid cell line TK6 (ATCC, Manassas, Va.) was cultured in RPMI 1640 medium (with Glutamax and 10% FHS) at a cell density of 0.2×10^5 to 10×10^5 cells/ml. Cells were routinely subcultured starting from frozen aliquots after […]. For experiments, passage numbers between 3 to 15 were used.
(§2) Cytotoxic concentrations were determined either by measuring cell density on a Sysmex Cell Counter (Sysmex America, Inc., Mundelein, Ill.) or by metabolic cell activity using the Alamar Blue (Serotec Inc., Raleigh, N.C.) cytotoxicity assay. Alamar Blue indicator dye quantitatively measures proliferation in human and other cells. Alamar Blue is a sensitive fluorimetric and calorimetric reagent sensitive to the redox state of the growth medium. Cell density by Sysmex was measured after the 24 h treatment. Cytotoxicity by Alamar Blue was measured 3 hours prior to end of treatment, i.e., at 21 hours. 200 III of cell suspension were mixed with 20 μl of Alamar Blue reagent in a 96-well plate and measured once/hour using a fluorescence plate reader with 544 nm excitation and 612 nm emission filters. Cell suspension samples from the cytotoxicity dilution series were analyzed for cytometry endpoints by Laser Scanning Cytometry.
(§3) TK6 human lymphoblastoid cells were exposed to following treatments (24 hours, 0.15×10^6 cells/ml):
Dose-response determination to provide the doses given in column 4 of Table 1 was carried out with an initial cell density of 0.15×10^6 cells/ml (see Example 1).
(§4) The six model compounds identified in Table 1 were applied in a dilution series to TK6 cells. The resulting dilution series for each of the six compounds provided individually optimized cytotoxic concentrations for 50% cell death (EC50) as determined by cell density and the Alamar Blue assay. It is possible that cell density and the Alamar Blue assay may not give identical cytotoxicity profiles. Thus, concentrations of the compounds were optimized with the objective to have both cytotoxicity parameters within the range of 40-60% viability decrease. In addition, for representative dilution series several cytometry endpoints were analyzed (BrdU incorporation, KI-67 staining (Histogenex, Edegem, Belgium), propidium iodide staining), although these parameters were not used for concentration selection.

[2] = system: TK6 human lymphoblastoid cells; assay: Microarray gene expression profiling with PLS-DA / KNN discrimination of cytotoxic versus genotoxic compounds (Examples 1-7); conditions: 24 h
Description: Total RNA was isolated after 24 hours of treatment with the agents or control using Qiagen's (Hilden, Germany) RNeasy Mini Kits. Samples were made up of 10 ml TK6 cell suspensions with an approximate cell density of 0.3×10^6 cells/ml. Column-purified RNA was eluted with 40 μl water and quality-checked by UV spectrometry and Agilent's “lab-on-a-chip” technology (RNA nano chip, Bioanalyzer 2100, Agilent Technologies, Santa Clara, Calif.). RNA extraction and purification is described by the manufacturer of the GeneChip system.
Purified total human TK6 RNA was analyzed using the human specific Human Genome U133, 2.0 array (Affymetrix). […] Sequences used in the design of the array were selected from GenBank®, dbEST, and RefSeq.
The resulting primary raw data, the image files (.dat files), were processed using the Microarray Analysis Suite 5 (MAS5) software (Affymetrix). Tab-delimited files were obtained containing data regarding signal intensity (Signal) and categorical expression level measurement (Absolute Call).
The raw data obtained from the GeneChip by MAS5 were imported to GeneSpring 7.2 for analysis. Data were normalized per chip and per gene to the respective median. Genes were annotated according to LocusLink nomenclature (http://www.ncbi.nlm.nih.gov/LocusLink/).
Filtering of the data was performed according to following criteria for each gene:
Fold-change refers to the ratio of genotoxic versus cytotoxic. Since these studies seek robust predictor genes the limit ratios (1.4 and 0.7) were selected in order to excluded genes that show consistent but only small differences. […]
PLS-DA was applied iteratively to the gene expression data with cyto- and genotcoxicity as class variables. […] The final model was validated by response permutation; i.e. the class membership of each sample was randomly attributed, evaluated by the model and contrasted to the solution of the model with the original class membership. […]

[3] = system: TK6 human lymphoblastoid cells; assay: Alamar Blue cytotoxicity assay (metabolic cell activity); conditions: measured at 21 hours, at the optimized cytotoxic concentration (Table 1), aim 40-60% viability decrease
Description: as §1, §2, §3, §4

[4] = system: TK6 human lymphoblastoid cells; conditions: dilution series up to or around the EC50 values (FIG. 1)
Description: FIG. 1. Graphical representation of the percentage of cells in G2 phase as a function of dilution of the indicated genotoxic and nongenotoxic compounds (points 1-9), with control samples at points 10-12. An original color image has been converted to grayscale by computer.
as §2
The six model compounds identified in Table 1 were applied in a dilution series to TK6 cells. […]

[5] = TK6 cells, equicytotoxic concentrations, cytotoxic samples above or at 0, genotoxic samples below 0

`COS(C)(=O)=O` [Methyl methanesulfonate] was tested, and the “Cell Density (±S.D.)” value [1] was 44 ± 2%, the “scores of first component t[1] of PLS-DA with all 215 genes (FIG. 4)” value (shortened to “scores of first component t[1] of PLS-DA”) ([2]; human) was “below t[1]=0” and the “Alamar Blue (±S.D.)” value [3] was 43 ± 8%.

In the case of `N.N.[Cl][Pt][Cl]` [trans-Platinum, trans-diammineplatinum(II) dichloride], the EC50 ([1]; listed as tPt) is reported as 33 µM, the “Cell Density (±S.D.)” value [1] is reported as 58 ± 7% and the “Alamar Blue (±S.D.)” value [3] is reported as 36 ± 13%.

With `N.N.[Cl][Pt][Cl]` [cis-Platinum, cis-diammineplatinum(II) dichloride] the EC50 [1] was 1.3 µM, the “Cell Density (±S.D.)” value [1] was 53 ± 4% and the “Alamar Blue (±S.D.)” value [3] was 46 ± 5%.

`CO[C@H]1/C=C/O[C@@]2(C)Oc3c(C)c(O)c4c(O)c(c(/C=N/N5CCN(C)CC5)c(O)c4c3C2=O)NC(=O)/C(C)=C\C=C\[C@H](C)[C@H](O)[C@@H](C)[C@@H](O)[C@@H](C)[C@H](OC(C)=O)[C@@H]1C` [Rifampicin] was tested, and the “Cell Density (±S.D.)” value [1] was 52 ± 9%, the “shifts in cell cycle parameters / G2 phase block” value [4] was “no significant shifts in cell cycle parameters” and the “scores of first component t[1] of PLS-DA” value [2, 5] was “above or at t[1]=0”. For the same compound, the “Alamar Blue (±S.D.)” value [3] was 61 ± 8%.

With `[Cl-].[Na+]` [NaCl] the “Cell Density (±S.D.)” value [1] was 30 ± 4%, the “shifts in cell cycle parameters / G2 phase block” value [4] was “no significant shifts in cell cycle parameters” and the “scores of first component t[1] of PLS-DA” value [2, 5] was “above or at t[1]=0”. For the same compound, the “Alamar Blue (±S.D.)” value [3] was 65 ± 5%.

In the case of `CO[C@@]12[C@H](COC(N)=O)C3=C(C(=O)C(C)=C(N)C3=O)N1C[C@@H]1N[C@@H]12` [Mitomycin C], the “Cell Density (±S.D.)” value [1] is reported as 53 ± 3% and the “Alamar Blue (±S.D.)” value [3] is reported as 48 ± 1%.
